Active and inactive are the calls of the source. The rule behind the calls is not given here.
Tested on: rodent lifetime carcinogenesis bioassay, tumor incidence TD50
Assay: carcinogenic potency in animals, long-term in vivo studies, CPDB compilation (AID 1745844)

`ClC=CCCl` was tested, and the TD50 (mouse, strain B6C3F1, females, by gavage, site: any site (literature study), lesion: several types, types named in the paper, dosed 104 weeks, study length 106 weeks) was 34.9 mg/kg/day, the TD50 (mouse, strain B6C3F1, females, by gavage, site: liver, lesion: hepatocellular adenoma + hepatocellular carcinoma + neoplastic nodule, dosed 104 weeks, study length 106 weeks) was 89.3 mg/kg/day and the TD50 (mouse, strain B6C3F1, females, by gavage, site: liver, lesion: hepatocellular adenoma + hepatocellular carcinoma, dosed 104 weeks, study length 106 weeks) was 89.3 mg/kg/day. For the same compound, the TD50 (mouse, strain B6C3F1, females, by gavage, site: liver, lesion: hepatocellular adenoma, dosed 104 weeks, study length 106 weeks) was 215 mg/kg/day, the TD50 (mouse, strain B6C3F1, females, by gavage, site: lung + stomach + urinary bladder, lesion: alveolar/bronchiolar adenoma + squamous-cell carcinoma + squamous-cell papilloma + transitional-cell carcinoma, dosed 104 weeks, study length 106 weeks) was 36.3 mg/kg/day and the TD50 (mouse, strain B6C3F1, females, by gavage, site: lung, lesion: alveolar/bronchiolar adenoma + alveolar/bronchiolar carcinoma, dosed 104 weeks, study length 106 weeks) was 182 mg/kg/day. The TD50 (mouse, strain B6C3F1, females, by gavage, site: lung, lesion: alveolar/bronchiolar adenoma, dosed 104 weeks, study length 106 weeks) was 149 mg/kg/day, the TD50 (mouse, strain B6C3F1, females, by gavage, site: stomach, lesion: squamous-cell carcinoma + squamous-cell papilloma, dosed 104 weeks, study length 106 weeks) was 344 mg/kg/day and the TD50 (mouse, strain B6C3F1, females, by gavage, site: urinary bladder, lesion: transitional-cell carcinoma, dosed 104 weeks, study length 106 weeks) was 49.6 mg/kg/day. For the same compound, the carcinogen call (mouse, strain B6C3F1, females, in feed, site: liver, lesion: hepatocellular adenoma, dosed 104 weeks, study length 104 weeks) was “negative (inactive)”, the carcinogen call (mouse, strain B6C3F1, females, in feed, site: liver, lesion: hepatocellular carcinoma, dosed 104 weeks, study length 104 weeks) was “negative (inactive)” and the carcinogen call (mouse, strain B6C3F1, females, in feed, site: lung, lesion: alveolar/bronchiolar adenoma, dosed 104 weeks, study length 104 weeks) was “negative (inactive)”. For the same compound, the carcinogen call (mouse, strain B6C3F1, females, in feed, site: lung, lesion: alveolar/bronchiolar carcinoma, dosed 104 weeks, study length 104 weeks) was “negative (inactive)”, the carcinogen call (mouse, strain B6C3F1, females, in feed, site: stomach, lesion: one or several types, types not named, dosed 52 weeks, study length 52 weeks) was “negative (inactive)” and the carcinogen call (mouse, strain B6C3F1, females, inhaled, site: any site (literature study), lesion: several types, types named in the paper, dosed 104 weeks, study length 104 weeks) was “negative (inactive)”. For the same compound, the TD50 (mouse, strain B6C3F1, females, inhaled, site: liver, lesion: several types, types named in the paper, dosed 104 weeks, study length 104 weeks) was 1810 mg/kg/day (inactive), the carcinogen call (mouse, strain B6C3F1, females, inhaled, site: lung, lesion: alveolar/bronchiolar adenoma, dosed 104 weeks, study length 104 weeks) was “negative (inactive)” and the carcinogen call (mouse, strain B6C3F1, females, inhaled, site: lung, lesion: one or several types, types not named, dosed 52 weeks, study length 52 weeks) was “negative (inactive)”. For the same compound, the carcinogen call (mouse, strain B6C3F1, females, inhaled, site: mesenteric lymph node, lesion: lymphosarcoma, dosed 104 weeks, study length 104 weeks) was “negative (inactive)”, the TD50 (mouse, strain B6C3F1, females, inhaled, site: pituitary gland, lesion: adenoma, dosed 104 weeks, study length 104 weeks) was 19 mg/kg/day (inactive) and the TD50 (mouse, strain B6C3F1, males, by gavage, site: any site (literature study), lesion: several types, types named in the paper, dosed 104 weeks, study length 105 weeks) was 309 mg/kg/day. The TD50 (mouse, strain B6C3F1, males, by gavage, site: liver, lesion: hepatocellular adenoma + hepatocellular carcinoma + neoplastic nodule, dosed 104 weeks, study length 105 weeks) was 1930 mg/kg/day, the TD50 (mouse, strain B6C3F1, males, by gavage, site: lung, lesion: alveolar/bronchiolar adenoma + alveolar/bronchiolar carcinoma, dosed 104 weeks, study length 105 weeks) was 127 mg/kg/day and the TD50 (mouse, strain B6C3F1, males, in feed, site: liver, lesion: hepatocellular adenoma, dosed 104 weeks, study length 104 weeks) was 78.2 mg/kg/day (inactive). The carcinogen call (mouse, strain B6C3F1, males, in feed, site: liver, lesion: hepatocellular carcinoma, dosed 104 weeks, study length 104 weeks) was “negative (inactive)”, the TD50 (mouse, strain B6C3F1, males, in feed, site: lung, lesion: alveolar/bronchiolar adenoma, dosed 104 weeks, study length 104 weeks) was 368 mg/kg/day (inactive) and the carcinogen call (mouse, strain B6C3F1, males, in feed, site: lung, lesion: alveolar/bronchiolar carcinoma, dosed 104 weeks, study length 104 weeks) was “negative (inactive)”. For the same compound, the carcinogen call (mouse, strain B6C3F1, males, in feed, site: stomach, lesion: one or several types, types not named, dosed 52 weeks, study length 52 weeks) was “negative (inactive)”, the TD50 (mouse, strain B6C3F1, males, inhaled, site: any site (literature study), lesion: several types, types named in the paper, dosed 104 weeks, study length 104 weeks) was 229 mg/kg/day and the TD50 (mouse, strain B6C3F1, males, inhaled, site: lacrimal gland, lesion: cystadenoma, dosed 104 weeks, study length 104 weeks) was 82.2 mg/kg/day. The TD50 (mouse, strain B6C3F1, males, inhaled, site: lung, lesion: alveolar/bronchiolar adenoma, dosed 104 weeks, study length 104 weeks) was 118 mg/kg/day, the carcinogen call (mouse, strain B6C3F1, males, inhaled, site: lung, lesion: one or several types, types not named, dosed 52 weeks, study length 52 weeks) was “negative (inactive)” and the TD50 (rat, strain Fischer 344, females, by gavage, site: liver, lesion: hepatocellular adenoma + hepatocellular carcinoma + neoplastic nodule, dosed 104 weeks, study length 106 weeks) was 168 mg/kg/day. It also gave a TD50 (rat, strain Fischer 344, females, by gavage, site: stomach, lesion: squamous-cell papilloma, dosed 104 weeks, study length 106 weeks) of 176 mg/kg/day, a TD50 (rat, strain Fischer 344, females, by gavage, site: thyroid gland, lesion: follicular-cell adenoma + follicular-cell carcinoma, dosed 104 weeks, study length 106 weeks) of 137 mg/kg/day and a TD50 (rat, strain Fischer 344, females, in feed, site: liver, lesion: hepatocellular adenoma, dosed 104 weeks, study length 104 weeks) of 334 mg/kg/day. The carcinogen call (rat, strain Fischer 344, females, in feed, site: stomach, lesion: one or several types, types not named, dosed 52 weeks, study length 52 weeks) was “negative (inactive)”, the TD50 (rat, strain Fischer 344, females, in feed, site: uterus, lesion: endometrial stromal polyp, dosed 104 weeks, study length 104 weeks) was 61.4 mg/kg/day and the carcinogen call (rat, strain Fischer 344, females, inhaled, site: any site (literature study), lesion: one or several types, types not named, dosed 52 weeks, study length 52 weeks) was “negative (inactive)”. The carcinogen call (rat, strain Fischer 344, females, inhaled, site: any site (literature study), lesion: several types, types named in the paper, dosed 105 weeks, study length 105 weeks) was “negative (inactive)”, the TD50 (rat, strain Fischer 344, females, inhaled, site: liver, lesion: hepatocellular adenoma, dosed 105 weeks, study length 105 weeks) was 1590 mg/kg/day (inactive) and the TD50 (rat, strain Fischer 344, males, by gavage, site: forestomach + liver + stomach, lesion: squamous-cell papilloma + neoplastic nodule + squamous-cell carcinoma, dosed 104 weeks, study length 106 weeks) was 33.2 mg/kg/day. It also gave a TD50 (rat, strain Fischer 344, males, by gavage, site: forestomach + stomach, lesion: squamous-cell papilloma + squamous-cell carcinoma, dosed 104 weeks, study length 106 weeks) of 64.1 mg/kg/day, a TD50 (rat, strain Fischer 344, males, by gavage, site: forestomach + stomach, lesion: squamous-cell papilloma, dosed 104 weeks, study length 106 weeks) of 97 mg/kg/day and a TD50 (rat, strain Fischer 344, males, by gavage, site: liver, lesion: hepatocellular adenoma + hepatocellular carcinoma + neoplastic nodule, dosed 104 weeks, study length 106 weeks) of 68 mg/kg/day. For the same compound, the TD50 (rat, strain Fischer 344, males, by gavage, site: liver, lesion: hepatocellular carcinoma + neoplastic nodule, dosed 104 weeks, study length 106 weeks) was 68 mg/kg/day, the TD50 (rat, strain Fischer 344, males, by gavage, site: liver, lesion: neoplastic nodule, dosed 104 weeks, study length 106 weeks) was 76 mg/kg/day and the TD50 (rat, strain Fischer 344, males, by gavage, site: stomach, lesion: squamous-cell carcinoma, dosed 104 weeks, study length 106 weeks) was 213 mg/kg/day. The TD50 (rat, strain Fischer 344, males, in feed, site: liver, lesion: hepatocellular adenoma, dosed 104 weeks, study length 104 weeks) was 100 mg/kg/day, the TD50 (rat, strain Fischer 344, males, in feed, site: liver, lesion: hepatocellular carcinoma, dosed 104 weeks, study length 104 weeks) was 1360 mg/kg/day and the carcinogen call (rat, strain Fischer 344, males, in feed, site: stomach, lesion: one or several types, types not named, dosed 52 weeks, study length 52 weeks) was “negative (inactive)”. For the same compound, the carcinogen call (rat, strain Fischer 344, males, inhaled, site: any site (literature study), lesion: one or several types, types not named, dosed 52 weeks, study length 52 weeks) was “negative (inactive)”, the carcinogen call (rat, strain Fischer 344, males, inhaled, site: any site (literature study), lesion: several types, types named in the paper, dosed 105 weeks, study length 105 weeks) was “negative (inactive)” and the carcinogen call (rat, strain Fischer 344, males, inhaled, site: liver, lesion: hepatocellular adenoma, dosed 105 weeks, study length 105 weeks) was “negative (inactive)”.
Work on `CCCCN(CCCC)N=O` yielded a TD50 (mouse, strain ICR/Jcl, males, in feed, site: esophagus, lesion: papilloma, dosed 52 weeks, study length 65 weeks) of 11.9 mg/kg/day, a TD50 (mouse, strain ICR/Jcl, males, in feed, site: forestomach, lesion: several types, types named in the paper, dosed 52 weeks, study length 65 weeks) of 0.686 mg/kg/day and a TD50 (mouse, strain ICR/Jcl, males, in feed, site: forestomach, lesion: squamous-cell carcinoma, dosed 52 weeks, study length 65 weeks) of 1.09 mg/kg/day. The TD50 (mouse, strain ICR/Jcl, males, in feed, site: forestomach, lesion: squamous-cell papilloma, dosed 52 weeks, study length 65 weeks) was 7.69 mg/kg/day, the TD50 (mouse, strain ICR/Jcl, males, in feed, site: liver, lesion: adenoma, dosed 52 weeks, study length 65 weeks) was 4.34 mg/kg/day and the TD50 (mouse, strain ICR/Jcl, males, in feed, site: liver, lesion: several types, types named in the paper, dosed 52 weeks, study length 65 weeks) was 2.65 mg/kg/day. The TD50 (mouse, strain ICR/Jcl, males, in feed, site: lung, lesion: adenoma, dosed 52 weeks, study length 65 weeks) was 8 mg/kg/day, the TD50 (rat, strain Fischer 344, males, by gavage, site: forestomach, lesion: carcinoma, dosed 30 weeks, study length 108 weeks) was 0.914 mg/kg/day and the TD50 (rat, strain Fischer 344, males, by gavage, site: liver, lesion: hepatocellular carcinoma, dosed 30 weeks, study length 108 weeks) was 0.691 mg/kg/day. For the same compound, the TD50 (rat, strain Fischer 344, males, by gavage, site: lung, lesion: carcinoma, dosed 30 weeks, study length 108 weeks) was 1.16 mg/kg/day and the TD50 (rat, strain Fischer 344, males, by gavage, site: urinary bladder, lesion: transitional-cell carcinoma, dosed 30 weeks, study length 108 weeks) was 1.47 mg/kg/day.

From PubChem BioAssay AID1745844 (Carcinogenic Potency Database (CPDB), 2022)
